Reference: patent US8778303B2, “99mTc-labeled 19 amino acid containing peptide for use as phosphatidylethanolamine binding molecular probe and radiopharmaceutical” (The Medical College of Wisconsin, Inc., priority 2008, dated 2014)
Entries after “also recorded” stand apart in the source; their conditions may differ.

Assays:
[1] = Stability of purified radiotracer in aqueous solution; format: physicochemical; conditions: once purified
Protocol: HPLC method 2. Jupiter C18 column (90 Å pore size, 250×4.6 mm) was used with a buffered mobile phase system consisting of phosphate buffer (10 mM sodium phosphate, pH 6.7) and acetonitrile at a flow rate of 1.0 ml/min at room temperature. A baseline of 5 min at 90% buffer A (phosphate buffer, pH6.7) and 10% buffer B (acetonitrile) was followed by a linear gradient to 10% buffer A and 90% buffer B in 30 min. The level of radioactivity in the HPLC elute was monitored by gamma counting at an energy window of 140±15 keV.
HYNIC-Duramycin was labeled with ^99mTc using the tricine-phosphine co-ligand system. Specifically, 15 μg of HYNIC-Duramycin was mixed with 40 mg of tricine, 1 mg of TPPTS and 20 μg SnCl2 in 0.8 ml at pH 5.3. The labeling was initiated with the addition of about 1 mCi of ^99mTc. The incubation was allowed to proceed for 40 min at room temperature. The final radiopharmaceutical, ^99mTc-HYNIC-Duramycin, was analyzed and purified using HPLC method 2. After purification, acetonitrile was removed by evaporation under nitrogen, and ^99mTc-HYNIC-Duramycin was reconstituted in saline for usage. ^99mTc-HYNIC-Duramycin^1 was synthesized in the same fashion. For stability tests, cysteine challenge was carried out at a cysteine-to-^99mTc-Duramycin ratio of 100 to 1, in 0.01 mM phosphate buffer (pH 6.8) for 2 hr at room temperature. The sample was analyzed with radioHPLC (method 2).

[2] = Protocol: Blood half-life and pharmacokinetic studies. The animal protocol used was approved by the Institutional Animal Care and Use Committee under the NIH guideline. Healthy Sprague Dawley rats were injected with radiolabeled Duramycin (2.3 nmole) via the tail vein. At each designated time point, including 0, 1, 5, 15, 30, and 60 min, 50 μl of blood was withdrawn from a pre-installed femoral artery catheter and collected in heparinized tubes. The blood sample was centrifuged at 5000 g, and the radioactivity in the cellular and plasma fractions was measured separately by direct gamma counting using an energy window of 140±15 keV. The data output included total blood activity with time, and the activity associated with blood cells and the plasma, respectively. The blood half-life measurement was conducted in triplets. To analyze the pharmacokinetics of the radiopharmaceutical, 10 μl of the plasma or urine sample was analyzed using HPLC method 2 which involves the physical separation of molecules based upon the matrix-solvent interactions.
[3] = Biodistribution studies in healthy rats; format: in vivo, rat
Protocol: Biodistribution studies. […] Dynamic whole-body biodistribution profile was acquired using an in-house gamma camera (GE XRT). The anesthetized animal was continuously imaged at an energy window of 140±15 keV, field of view 22.5×22.5 cm, matrix 128×128, at 1 min per image for up to 60 min post-injection.
For quantitative biodistribution, at each designated time point after intravenous injection of radiolabeled Duramycin, including 0, 1, 5, 15, 30, and 60 min, a group of 4 rats were sacrificed. Various tissues were dissected, rinsed in saline, weighed, and the level of radioactivity was determined using direct gamma counting (140±15 keV).

acute cardiac cell death [4] = experiment: In vivo imaging of acute cardiac cell death, rat model of ischemia and reperfusion
area-at-risk = experiment: Spatial and temporal uptake in the area-at-risk after myocardial ischemia and reperfusion; format: in vivo, rat
AMI = experiment: Window of detection for AMI, planar imaging and autoradiography; format: in vivo, rat
breast tumor = experiment: Imaging in chemical-induced breast cancer model with doxorubicin treatment; format: in vivo, rat
Description: In an experimental example using a chemical-induced breast cancer model in rats, breast tumors were allowed to grow to palpable size prior to doxorubicin treatment (see arrow, FIG. 9B).

acute cardiac cell death [5] = experiment: Imaging of cardiac cell death after coronary ischemia with or without reperfusion (Example 2); format: in vivo, rat
Protocol: Cardiology applications include imaging cardiac cell death in heart diseases, such as acute myocardial infarction, myocarditis, myocardial ischemia, and heart transplant rejection. In an experimental example using a rat model, 99mTc-Duramycin was injected into a control rat (FIG. 10A) and a rat in which coronary ischemia was induced, followed by reperfusion (FIG. 10B). Both rats were subsequently imaged. […] A similar experiment was performed using a rat model where induced coronary ischemia was not followed by reperfusion.

[6] = system: heart transplant rejection; experiment: Imaging in rat model of heart transplant rejection; format: in vivo; conditions: days four and six post transplantation
Protocol: In another experimental example, using a rat model of heart transplant rejection, rats were given heart allograft transplants, and other rats were given heart isograft transplants. Four and six days after heart tissue transplantation, the rats were injected with 99mTc-Duramycin and subsequently imaged.

stroke = conditions: in vivo
rat serum albumin = rat serum albumin (Rattus norvegicus, UniProt P02770); conditions: RadioHPLC
rat serum albumin, sequence (P02770 25-608): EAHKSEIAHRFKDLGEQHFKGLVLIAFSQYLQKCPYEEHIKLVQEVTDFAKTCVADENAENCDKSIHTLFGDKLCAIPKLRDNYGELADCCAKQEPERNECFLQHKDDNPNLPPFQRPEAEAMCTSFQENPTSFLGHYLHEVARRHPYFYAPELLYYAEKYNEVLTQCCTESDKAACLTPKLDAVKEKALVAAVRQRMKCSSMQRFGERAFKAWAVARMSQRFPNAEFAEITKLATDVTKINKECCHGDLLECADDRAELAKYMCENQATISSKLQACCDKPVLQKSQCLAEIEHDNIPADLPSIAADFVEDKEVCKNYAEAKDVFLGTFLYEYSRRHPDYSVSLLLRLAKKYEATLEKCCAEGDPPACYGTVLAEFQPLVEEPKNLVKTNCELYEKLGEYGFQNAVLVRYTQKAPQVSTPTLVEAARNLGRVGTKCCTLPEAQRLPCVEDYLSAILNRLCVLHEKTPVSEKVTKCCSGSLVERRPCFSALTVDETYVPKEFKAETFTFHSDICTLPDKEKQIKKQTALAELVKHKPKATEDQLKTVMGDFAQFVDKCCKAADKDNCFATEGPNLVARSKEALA

[7] = dissected heart tissues, 60 min after injection

## CC(C)=NNc1ccc(C(=O)NCCCC[C@@H]2NC(=O)[C@@H](N)CS[C@@H](C)[C@H]3NC(=O)[C@H](CC(N)=O)NC(=O)CNC(=O)[C@H]([C@@H](O)C(=O)O)NC(=O)[C@@H]4CSC[C@@H](NC(=O)[C@H](CCC(N)=O)NC2=O)C(=O)N[C@H]2CS[C@@H](C)[C@@H](NC(=O)[C@H](Cc5ccccc5)NC(=O)[C@@H]5CCCN5C(=O)CNC(=O)[C@H](Cc5ccccc5)NC(=O)[C@H](CNCCCC[C@@H](C(=O)O)NC3=O)NC2=O)C(=O)N[C@@H](Cc2ccccc2)C(=O)N[C@@H](C(C)C)C(=O)N4)cn1 [^99mTc-HYNIC-Duramycin, metal not drawn]
[1]
  time with no significant level of detached 99mTc detected: at least 24 hrs
[2]; after intravenous injection
  radio-HPLC analysis of plasma samples: majority of the injected radioactivity remained as the parent
[2]; all time points
  radioactivity in the blood associated with the plasma fraction: greater than 95%
[3]; Sprague Dawley, rat, 2.3 nmole, total radioactivity, Bone, healthy rats, intravenous, 60 min post-injection (n=4)
  tissue uptake at 1 h: 0.04 ± 0.01 %ID/g
[3]; Sprague Dawley, rat, 2.3 nmole, total radioactivity, Brain, healthy rats, intravenous, 60 min post-injection (n=4)
  tissue uptake at 1 h: 0.01 ± 0.01 %ID/g
[3]; Sprague Dawley, rat, 2.3 nmole, total radioactivity, Colon, healthy rats, intravenous, 60 min post-injection (n=4)
  tissue uptake at 1 h: 0.11 ± 0.01 %ID/g
[3]; Sprague Dawley, rat, 2.3 nmole, total radioactivity, Fat, healthy rats, intravenous, 60 min post-injection (n=4)
  tissue uptake at 1 h: 0.06 ± 0.06 %ID/g
[3]; Sprague Dawley, rat, 2.3 nmole, total radioactivity, Heart, healthy rats, intravenous, 60 min post-injection (n=4)
  tissue uptake at 1 h: 0.21 ± 0.16 %ID/g
[3]; Sprague Dawley, rat, 2.3 nmole, total radioactivity, Kidney, healthy rats, intravenous, 60 min post-injection (n=4)
  tissue uptake at 1 h: 2.32 ± 0.48 %ID/g
[3]; Sprague Dawley, rat, 2.3 nmole, total radioactivity, Liver, healthy rats, intravenous, 60 min post-injection (n=4)
  tissue uptake at 1 h: 0.28 ± 0.01 %ID/g
[3]; Sprague Dawley, rat, 2.3 nmole, total radioactivity, Lung, healthy rats, intravenous, 60 min post-injection (n=4)
  tissue uptake at 1 h: 0.12 ± 0.05 %ID/g
[3]; Sprague Dawley, rat, 2.3 nmole, total radioactivity, Muscle, healthy rats, intravenous, 60 min post-injection (n=4)
  tissue uptake at 1 h: 0.03 ± 0.01 %ID/g
[3]; Sprague Dawley, rat, 2.3 nmole, total radioactivity, Pancreas, healthy rats, intravenous, 60 min post-injection (n=4)
  tissue uptake at 1 h: 0.05 ± 0.01 %ID/g
[3]; Sprague Dawley, rat, 2.3 nmole, total radioactivity, Skin, healthy rats, intravenous, 60 min post-injection (n=4)
  tissue uptake at 1 h: 0.01 ± 0.01 %ID/g
[3]; Sprague Dawley, rat, 2.3 nmole, total radioactivity, Small intestine, healthy rats, intravenous, 60 min post-injection (n=4)
  tissue uptake at 1 h: 0.37 ± 0.07 %ID/g
[3]; Sprague Dawley, rat, 2.3 nmole, total radioactivity, Spleen, healthy rats, intravenous, 60 min post-injection (n=4)
  tissue uptake at 1 h: 0.1 ± 0.02 %ID/g
[3]; Sprague Dawley, rat, 2.3 nmole, total radioactivity, Stomach, healthy rats, intravenous, 60 min post-injection (n=4)
  tissue uptake at 1 h: 0.11 ± 0.01 %ID/g
[3]; Sprague Dawley, rat, 2.3 nmole, total radioactivity, Thymus, healthy rats, intravenous, 60 min post-injection (n=4)
  tissue uptake at 1 h: 0.06 ± 0.02 %ID/g
[3]; Sprague Dawley, rat, 2.3 nmole, total radioactivity, Thyroid, healthy rats, intravenous, 60 min post-injection (n=4)
  tissue uptake at 1 h: 0.08 ± 0.03 %ID/g
[3]; Sprague Dawley, rat, 2.3 nmole, total radioactivity, Urine, healthy rats, intravenous, 60 min post-injection (n=4), read-out: Uptake
  excreta dose per gram or mL at 1 h: 22.1 ± 13.2 %ID/g
[3]; Sprague Dawley, rat, whole blood, 2.3 nmole, total radioactivity, Blood, healthy rats, intravenous, 60 min post-injection (n=4)
  tissue uptake at 1 h: 0.33 ± 0.11 %ID/g
[3]; at the current dosage tested, rats
  signs of toxicity or other adverse effects: no signs of toxicity or other adverse effects were observed
[3]; healthy rats
  brain uptake: low
  route of clearance: renal excretion is the predominant route of clearance
  uptake in the hepatic and gastrointestinal regions: low uptake; also recorded: very low
Acute cardiac cell death [4]; at 1 hr post-injection
  average radioactivity at the infarct site: above 4.0 % ID/g
Acute cardiac cell death [4]; at 2 hr after injection (n=3)
  infarct-to-lung ratio: 4.8±0.4
  infarct-to-muscle ratio: 12.2±1.3
Acute cardiac cell death [4]; dynamic images, as early as
  time after injection at which focal uptake was seen at the infarct: 10 min
Acute cardiac cell death [4]; rat, in vivo
  average radioactivity at the infarct site: less than 1.0 % ID/g
  retention / washout of radioactivity in the infarct: accompanied with a washout
area-at-risk; after injection
  time uptake in infarct tissues remained persistent without significant washout: at least 3 hours
area-at-risk; area-at-risk, after injection
  time to approach plateau of uptake: ≤ 10 min
area-at-risk; at 180 min
  tracer uptake in the ischemic-non-infarct myocardium: 2.1±0.3 % ID
area-at-risk; [7]
  average infarct-to-normal ratio: 31.9
  average ischemic-to-normal ratio: 11.1
area-at-risk; minimum at 60 min
  tracer uptake in the ischemic-non-infarct myocardium: 1.6±0.6 % ID/g
area-at-risk; peak at around 10 min post-injection
  tracer uptake in the ischemic-non-infarct myocardium: 2.7±0.6 % ID/g
area-at-risk; plateau by 10 min after injection
  radioactivity uptake in the infarcted myocardium: 4.3±0.7 % ID/g
area-at-risk; rat myocardial ischemia and reperfusion
  level (plateau) of uptake in the area-at-risk: ~4 % ID/g
area-at-risk; rat, in vivo
  presence of radioactivity in the infarcted tissue reduced (inactivated tracer): ~60%
  time of maximum radioactivity in the infarcted tissue: about 30 min
area-at-risk; reflecting residual blood pool signal
  radioactivity uptake in the normal myocardium: low
area-at-risk; within 3 min after injection
  radioactivity uptake in the infarcted myocardium: 1.8±0.4 % ID/g
AMI; at 24 hr compared with 2 hr post infarction
  decline of signal-to-background ratio in autoradiographs: 32%
AMI; at 48 hr compared with 2 hr post infarction
  decline of signal-to-background ratio in autoradiographs: 43%
Breast tumor; after a single cycle of doxorubicin
  uptake in treated breast tumor: elevated
Breast tumor; rat, in vivo
  cardiac uptake after doxorubicin: also elevated
Acute cardiac cell death [5]; infarct model rat, 120 minutes after injection
  imaging of acute cardiac cell death after reperfused coronary ischemia: can be seen
Acute cardiac cell death [5]; rat model
  imaging of cardiac cell death following nonreperfused coronary ischemia: successfully imaged
[6]
  uptake in heart allografts in contrast to isografts: Markedly elevated
stroke
  uptake in brain, rat stroke model: Focal uptake of radioactivity is colocalized with regions of stroke
Rat serum albumin
  complex formation between the tracer and albumin: did not result in any complex formation
